Test results: patent publication US5886146A, “Inhibitors of thrombosis” (Corvas International, Inc., priority 1995, dated 1999)
pIC50: −log10 of the molar value. Read-outs that look alike come from different tables or passages of the source. Peptide text beside a SMILES is read from it. * marks the point of attachment. Hydrocinnamoyl = O=C(CCc1ccccc1)*

Columns and labels:
human α-thrombin = human α-thrombin (Homo sapiens, UniProt P00734); assay: Thrombin assay, chromogenic substrate Pefachrome t-PA; assay type: biochemical; conditions: purified human enzyme 0.25 nM, 30 minute incubation, substrate 300 μM, HBSA pH 7.5
Method: (§1) The buffer used for all assays was HBSA (10 mM HEPES, pH 7.5, 150 mM sodium chloride, 0.1% bovine serum albumin). […] Following a 30 minute incubation at ambient temperature, 50 μL of the substrate at the concentrations specified below, was added to the wells yielding a final total volume of 200 μL.
Thrombin catalytic activity was determined using the chromogenic substrate Pefachrome t-PA (CH3 SO2 -D-hexahydrotyrosine-glycyl-L-arginine-p-nitroaniline, obtained from Pentapharm Ltd.).

Human factor Xa = target: T1, Human factor Xa (Homo sapiens, UniProt P00742); assay: Factor Xa assay, chromogenic substrate S2765; assay type: biochemical; conditions: purified human enzyme 0.5 nM, 30 minute incubation, substrate 250 μM, HBSA pH 7.5
T1 construct: Human factor Xa was prepared from purified human factor X obtained from Enzyme Research Laboratories; purchased Enzyme Research Laboratories
T1 sequence (P00742 235-488 limits assumed): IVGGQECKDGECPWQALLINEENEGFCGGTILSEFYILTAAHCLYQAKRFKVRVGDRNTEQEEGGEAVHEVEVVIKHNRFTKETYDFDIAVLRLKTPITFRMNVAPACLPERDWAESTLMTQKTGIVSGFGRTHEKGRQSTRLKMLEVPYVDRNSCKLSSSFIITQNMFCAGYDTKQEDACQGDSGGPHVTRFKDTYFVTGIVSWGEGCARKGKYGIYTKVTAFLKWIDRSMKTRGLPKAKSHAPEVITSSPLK
T1 sequence (P00742 41-179 partner limits assumed): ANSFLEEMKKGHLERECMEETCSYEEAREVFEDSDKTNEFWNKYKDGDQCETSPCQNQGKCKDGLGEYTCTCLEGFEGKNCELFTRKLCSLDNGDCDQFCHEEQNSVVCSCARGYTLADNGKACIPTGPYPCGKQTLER
Method: as §1, with “μL. The initial velocity of chromogenic substrate hydrolysis was measured by the change in absorbance at 405 nm using a Thermo Max® Kinetic Microplate Reader over a 5 minute period in which less than 5% of the added substrate was utilized.” for “μL.”
Factor Xa catalytic activity was determined using the substrate, S2765 (N-α-benzyloxycarbonyl-D-argininyl-L-glycyl-L-arginine-p-nitroanilide dihydrochloride) which was obtained from Kabi Diagnostica. […] Human factor Xa was prepared from purified human factor X obtained from Enzyme Research Laboratories according to the method described by Bock, P. E. et al., Archives of Biochem. Biophys. 273: 375 (1989). The enzyme was diluted into HBSA prior to the assay in which the final concentration was 0.5 nM.

human plasmin = human plasmin (Homo sapiens, UniProt P00747); assay: Plasmin assay, chromogenic substrate S-2251; assay type: biochemical; conditions: purified human enzyme 1.0 nM, 30 minute incubation, substrate 300 μM, HBSA pH 7.5
Chain of human plasmin (P00747 581-810 limits assumed): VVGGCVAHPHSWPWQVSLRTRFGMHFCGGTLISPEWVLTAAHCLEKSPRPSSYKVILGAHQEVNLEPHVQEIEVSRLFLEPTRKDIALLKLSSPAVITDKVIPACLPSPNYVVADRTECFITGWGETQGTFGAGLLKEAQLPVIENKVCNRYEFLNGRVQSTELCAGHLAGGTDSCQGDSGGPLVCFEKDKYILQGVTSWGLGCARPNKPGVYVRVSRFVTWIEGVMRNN
Chain of human plasmin (P00747 97-580 partner limits assumed): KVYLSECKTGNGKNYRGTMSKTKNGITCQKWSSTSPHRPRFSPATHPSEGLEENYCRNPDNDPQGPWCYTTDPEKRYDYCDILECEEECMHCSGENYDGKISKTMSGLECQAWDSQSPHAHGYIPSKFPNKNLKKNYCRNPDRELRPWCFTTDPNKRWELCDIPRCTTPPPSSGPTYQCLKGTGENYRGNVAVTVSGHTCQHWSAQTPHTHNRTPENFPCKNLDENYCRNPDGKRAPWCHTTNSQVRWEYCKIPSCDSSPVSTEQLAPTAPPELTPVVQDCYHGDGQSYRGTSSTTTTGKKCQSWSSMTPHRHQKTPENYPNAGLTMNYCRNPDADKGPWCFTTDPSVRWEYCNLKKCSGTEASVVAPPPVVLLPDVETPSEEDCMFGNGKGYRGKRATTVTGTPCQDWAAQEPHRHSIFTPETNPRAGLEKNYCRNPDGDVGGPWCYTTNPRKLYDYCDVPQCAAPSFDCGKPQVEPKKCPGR

[1] = system: FeCl3-induced platelet-dependent arterial thrombosis; assay type: in vivo, rat; conditions: for Clot Size: mean ± S.E.M.
Source text: Res., 60: 269-280 (1990). […] Res., 60: 269-280 (1990). […] The animals were then euthanized.

Compound	pIC50 (human α-thrombin)	pIC50 (Human factor Xa)	pIC50 (human plasmin)	Clot Size ([1]; Group 1, 25 μg/kg/min i.v. infusion)	Clot Size ([1]; Group 2, 50 μg/kg/min i.v. infusion)	Clot Size ([1]; Group 3, 100 μg/kg/min i.v. infusion)	Efficacy as an antithrombotic agent (in words) ([1]; rat FeCl3 model, i.v. infusion)
CC(C)CCC(=O)N[C@@H](CC(=O)O)C(=O)N1CCC[C@H]1C(=O)N[C@H](C=O)CCCNC(=N)N [4MeV-Asp-Pro-Arg-al, N-(4-methylpentanoyl)-L-aspartyl-L-prolyl-L-argininal]	6.86	7.13	–	–	–	–	–
N=C(N)NCCC[C@@H](C=O)NC(=O)[C@@H]1CCCN1C(=O)[C@H](CC(=O)O)NC(=O)CCC1CCCCC1 [ChxPA-Asp-Pro-Arg-al, N-(3-cyclohexanepropionyl)-L-aspartyl-L-prolyl-L-argininal]	7.39	7.62	–	–	–	–	–
N=C(N)NCCC[C@@H](C=O)NC(=O)[C@@H]1CCCN1C(=O)[C@H](CC(=O)O)NC(=O)CCc1ccccc1 [HCA-Asp-Pro-Arg-al, N-(3-phenylpropionyl)-L-aspartyl-L-prolyl-L-argininal] (Hydrocinnamoyl-Asp-Pro-Arg-aldehyde)	7.04	7.28	–	48.38 ± 24.71%	22.38 ± 21.0%	3.38 ± 5.44%	reduction in the incidence of occlusion and in clot size

Now from value to compound, other results behind:

pIC50 (human α-thrombin)	pIC50 (Human factor Xa)	pIC50 (human plasmin)	Compound	Clot Size ([1]; Group 1, 25 μg/kg/min i.v. infusion)	Clot Size ([1]; Group 2, 50 μg/kg/min i.v. infusion)	Clot Size ([1]; Group 3, 100 μg/kg/min i.v. infusion)	Efficacy as an antithrombotic agent (in words) ([1]; rat FeCl3 model, i.v. infusion)
8.21	6.62	–	CCCC(CCC)C(=O)N[C@@H](CC(=O)O)C(=O)N1CCC[C@H]1C(=O)N[C@H](C=O)CCCNC(=N)N [2PrPent-Asp-Pro-Arg-al, N-(2-propylpentanoyl)-L-aspartyl-L-prolyl-L-argininal]	–	–	–	–
–	–	6.30	CC(C)CCC(=O)NC(Cc1nnn[nH]1)C(=O)N1CCC[C@H]1C(=O)N[C@H](C=O)CCCNC(=N)N (stereo partly drawn) [4MeV-Ala(Tzl)-Pro-Arg-al, 3-tetrazolyl-2-(4-methylvaleroylamido) propionyl-L-prolyl-L-argininal]	–	–	–	–
